Assays:
[1] = test system: LegB (Cj1319, 4,6-dehydratase); assay: LegB C4,6 dehydratase reaction with NDP-sugars; format: biochemical, Campylobacter jejuni 11168
Procedure: (§1) Enzymatic reactions were performed for 4.5 h at 37° C., and then overnight at 25° C., with approximately 200 μg ml^−1 respective protein concentration using chemicals from Sigma (unless otherwise indicated). GDP-glucosamine biosynthesis. The ‘one-pot’ enzymatic synthesis of GDP-GlcN from Fru-6-P (I→IV) was accomplished using a 3 ml reaction containing His6PtmF, PtmAHis6, PgmLHis6, His6PtmE, 5 mM Fru-6-P (I), 10 mM L-Gln, 1 mM DTT, 5 mM MgCl2, 0.8 U ml^−1 pyrophosphatase, and 2.5 mM GTP in 25 mM Tris pH 7.5. Large-scale enzymatic synthesis of GDP-GlcN (IV) was accomplished using a 12 ml reaction containing 50 mM Tris pH 7.5, 1 mM GTP, 1 mM MgCl2, 0.8 U ml^−1 pyrophosphatase, 1.2 mM GlcN-1-P (III) and approximately 4.8 mg of His6PtmE. The large-scale enzymatic synthesis of GDP-GlcNAc was performed similar to that above, except the scale was increased five-fold and GlcNAc-1-P was used in place of GlcN-1-P (III). Assessment of His6PtmE substrate specificity was accomplished using 9 reactions, 80 μl each, containing 50 mM Tris pH 7.5, 2 mM MgCl2, 50 μg His6PtmE, and various combinations of 10 mM sugar-1-P (GalN-1-P, GlcN-1-P or GlcNAc-1-P) and 0.2 mM NTP (CTP, GTP, or TTP). Conversion of GDP-GlcN to GDP-GlcNAc. The His6GlmU reaction was performed using 1 mM GDP-GlcN (IV), 1.2 mM acetyl-CoA and His6GlmU in 25 mM sodium phosphate pH 7.8, 25 mM NaCl, 10 mM β-mercaptoethanol. In addition, a control reaction was performed containing 1 mM GlcN-1-P (III) instead of IV. Biosynthesis of legionaminic acid from GDP-GlcNAc. The stepwise enzymatic synthesis of intermediates or products was accomplished in 2 stages (V→VI→VII→VIII, and then VIII→IX→X) using 1 mM of V, 0.5 mM NAD, 0.8 mM PLP, 8 mM L-Glu, 1.2 mM acetyl-CoA, 1.2 mM PEP, LegBHis6, His6LegC, His6LegH, His6LegG, and His6LegI as appropriate, in 25 mM sodium phosphate pH 7.3, 25 mM NaCl. Assessment of His6LegG activity involved monitoring the reaction kinetics by ^1H NMR (see NMR spectroscopy) for 75 min using 0.75 mM GDP-2,4-diacetamido-2,4,6-trideoxy-α-D-Glc (VIII), 4 μg His6LegG in 200 μl of 25 mM sodium phosphate pH 7.3, 25 mM NaCl at 25° C. In addition, the substrate flexibility of His6LegG was assessed using a 300 μl reaction containing 40 μg His6LegG, 25 mM sodium phosphate pH 7.3, 25 mM NaCl, and 0.75 mM UDP-2,4-diacetamido-2,4,6-trideoxy-α-D-Glc, with incubation at 37° C. for 1.5 h, and then overnight at 25° C. Biosynthesis of CMP-legionaminic acid. The CMP-activation of legionaminic acid (X→XI) was performed using a 20 ml reaction containing approximately 0.2 mM of X, 50 mM MgCl2, 3 mM CTP, and 15 mg of LegFHis6 in 25 mM sodium phosphate pH 7.8, 25 mM NaCl, with incubation at 37° C. for 5 h, and then 25° C. for 72 h. Metabolite purification. Typically, reactions were passed through an Amicon Ultra-15 (10,000 molecular weight cut-off) or Ultra-4 (5,000 molecular weight cut-off) filter membrane before analysis. As required, NDP-sugar preparations (GDP-Glc, GDP-GlcN, GDP-GlcNAc, CDP-GlcNAc, TDP-GlcNAc, and CMP-Leg) were lyophilized and desalted/purified using a Superdex Peptide 10/300 GL (Amersham Biosciences) column in 25 mM ammonium bicarbonate, pH 7.9. For further purity, the NDP-sugar samples above were subjected to anion-exchange chromatography (Mono Q 4.6/100 PE, Amersham Biosciences) using ammonium bicarbonate pH 7.9. Quantification of NDP-sugar preparations was determined using the molar extinction coefficients of CMP (ε260=7,400), GDP (ε260=11,500), TDP (ε260=8,700), and UDP (ε260=10,000).
CE analysis was performed using either a P/ACE 5510 or P/ACE MDQ system (Beckman Instruments, Mississauga, Ont) with diode array detection. The capillaries were bare silica 50 μm×50 cm, with a detector at 50 cm, and the running buffer was 25 mM sodium tetraborate pH 9.4. Samples were introduced by pressure injection for 6 sec, and the separation was performed at 18 kV for 20 min. Peak integration was done using the Beckman P/ACE station software.

[2] = target: T1, His6GlmU (Cj0821, N-acetyltransferase) (Campylobacter jejuni subsp. jejuni serotype O:2, UniProt Q9PPA2); assay: His6GlmU N-acetylation reaction (CE-MS); format: biochemical, Campylobacter jejuni 11168; settings: 1 mM substrate, 1.2 mM acetyl-CoA
T1 construct: made in house; host or cells: E. coli BL21[DE3]
T1 sequence (Q9PPA2 whole entry): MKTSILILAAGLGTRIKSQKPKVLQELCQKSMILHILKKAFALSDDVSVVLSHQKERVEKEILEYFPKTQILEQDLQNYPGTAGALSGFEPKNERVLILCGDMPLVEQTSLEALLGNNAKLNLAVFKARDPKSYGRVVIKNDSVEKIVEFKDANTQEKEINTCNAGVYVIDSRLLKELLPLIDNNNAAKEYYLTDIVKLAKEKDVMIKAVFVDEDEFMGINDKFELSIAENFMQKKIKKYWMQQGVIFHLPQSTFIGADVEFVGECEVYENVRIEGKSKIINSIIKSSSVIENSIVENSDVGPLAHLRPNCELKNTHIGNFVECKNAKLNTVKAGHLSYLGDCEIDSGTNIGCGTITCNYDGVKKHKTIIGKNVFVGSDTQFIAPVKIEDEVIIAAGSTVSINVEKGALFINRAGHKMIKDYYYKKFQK
Procedure: (§2) Enzymatic reactions were performed for 4.5 h at 37° C., and then overnight at 25° C., with approximately 200 μg ml^−1 respective protein concentration using chemicals from Sigma (unless otherwise indicated). GDP-glucosamine biosynthesis. The ‘one-pot’ enzymatic synthesis of GDP-GlcN from Fru-6-P (I→IV) was accomplished using a 3 ml reaction containing His6PtmF, PtmAHis6, PgmLHis6, His6PtmE, 5 mM Fru-6-P (I), 10 mM L-Gln, 1 mM DTT, 5 mM MgCl2, 0.8 U ml^−1 pyrophosphatase, and 2.5 mM GTP in 25 mM Tris pH 7.5. Large-scale enzymatic synthesis of GDP-GlcN (IV) was accomplished using a 12 ml reaction containing 50 mM Tris pH 7.5, 1 mM GTP, 1 mM MgCl2, 0.8 U ml^−1 pyrophosphatase, 1.2 mM GlcN-1-P (III) and approximately 4.8 mg of His6PtmE. The large-scale enzymatic synthesis of GDP-GlcNAc was performed similar to that above, except the scale was increased five-fold and GlcNAc-1-P was used in place of GlcN-1-P (III). […] In addition, the substrate flexibility of His6LegG was assessed using a 300 μl reaction containing 40 μg His6LegG, 25 mM sodium phosphate pH 7.3, 25 mM NaCl, and 0.75 mM UDP-2,4-diacetamido-2,4,6-trideoxy-α-D-Glc, with incubation at 37° C. for 1.5 h, and then overnight at 25° C. […] Quantification of NDP-sugar preparations was determined using the molar extinction coefficients of CMP (ε260=7,400), GDP (ε260=11,500), TDP (ε260=8,700), and UDP (ε260=10,000). […]

[3] = target: T2, His6LegG (Cj1328, NDP-sugar hydrolase/2-epimerase) (Campylobacter jejuni subsp. jejuni serotype O:2, UniProt Q0P8T0); assay: His6LegG activity and substrate flexibility (1H NMR, CE); format: biochemical, Campylobacter jejuni 11168
T2 construct: made in house; host or cells: E. coli BL21[DE3]
T2 sequence (Q0P8T0 whole entry): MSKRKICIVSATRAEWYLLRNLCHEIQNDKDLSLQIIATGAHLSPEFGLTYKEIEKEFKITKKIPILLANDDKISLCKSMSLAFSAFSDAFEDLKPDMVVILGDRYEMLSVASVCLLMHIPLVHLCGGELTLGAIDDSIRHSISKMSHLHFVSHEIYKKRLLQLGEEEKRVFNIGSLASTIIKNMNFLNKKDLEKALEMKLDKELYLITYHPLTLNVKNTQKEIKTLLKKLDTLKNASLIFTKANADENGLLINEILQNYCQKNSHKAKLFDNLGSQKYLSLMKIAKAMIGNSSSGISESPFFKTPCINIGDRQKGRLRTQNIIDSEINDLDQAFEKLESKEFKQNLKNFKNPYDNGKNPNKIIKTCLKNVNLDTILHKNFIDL
Procedure: as §1, with “The CMP-activation of legionaminic acid (X→XI) was performed using a 20 ml reaction containing approximately 0.2 mM of X, 50 mM MgCl2, 3 mM CTP, and 15 mg of LegFHis6 in 25 mM sodium phosphate pH 7.8, 25 mM NaCl, with incubation at 37° C. for 5 h, and then 25° C. for 72 h. Metabolite purification. Typically, reactions were passed through an Amicon Ultra-15 (10,000 molecular weight cut-off) or Ultra-4 (5,000 molecular weight cut-off) filter membrane before analysis. As required, NDP-sugar preparations (GDP-Glc, GDP-GlcN, GDP-GlcNAc, CDP-GlcNAc, TDP-GlcNAc, and CMP-Leg) were lyophilized and desalted/purified using a Superdex Peptide 10/300 GL (Amersham Biosciences) column in 25 mM ammonium bicarbonate, pH 7.9. For further purity, the NDP-sugar samples above were subjected to anion-exchange chromatography (Mono Q 4.6/100 PE, Amersham Biosciences) using ammonium bicarbonate pH 7.9.” left out, “(ε260=10,000). […]” for “(ε260=10,000).”

[4] = test system: LegC (Cj1320, PLP-dependent aminotransferase); assay: LegC aminotransferase reaction; format: biochemical, Campylobacter jejuni 11168; settings: L-Glu
Procedure: as §2

[5] = target: T3, PglD (N-acetyltransferase) (Campylobacter jejuni subsp. jejuni serotype O:2, UniProt Q0P9D1); assay: PglD N-acetyltransferase reaction; format: biochemical; settings: acetyl-CoA
T3 construct: His6 (C); made in house; host or cells: E. coli BL21[DE3]
T3 sequence (Q0P9D1 whole entry): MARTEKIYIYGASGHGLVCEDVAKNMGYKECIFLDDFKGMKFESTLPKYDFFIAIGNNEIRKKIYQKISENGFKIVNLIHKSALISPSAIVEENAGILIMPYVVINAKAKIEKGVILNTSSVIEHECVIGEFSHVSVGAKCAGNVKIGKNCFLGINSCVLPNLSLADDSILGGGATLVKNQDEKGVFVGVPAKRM

[6] = test system: LegH (Cj1298, N-acetyltransferase); assay: LegH N-acetyltransferase reaction; format: biochemical, Campylobacter jejuni 11168; settings: acetyl-CoA
Procedure: as §2

SMILES: Nc1nc2c(ncn2C2OC(COP(=O)(O)OP(=O)(O)OC3OC(CO)C(O)C(O)C3N)C(O)C2O)c(=O)[nH]1 [IV, GDP-α-D-glucosamine]
- LegB reaction product formation ([1]; in the presence or absence of NAD(P)+): did not yield discernable product
- GlmU N-acetylation of substrate (conversion of IV to V) [2]: not to completion

SMILES: CC(=O)N[C@H]1[C@@H](OP(=O)(O)OP(=O)(O)OC[C@H]2O[C@@H](n3cnc4c(=O)[nH]c(N)nc43)[C@H](O)[C@@H]2O)O[C@H](CO)[C@@H](O)[C@@H]1O [V, GDP-N-acetyl-α-D-glucosamine]
- LegB C4,6 dehydration of substrate ([1]; NAD+ added exogenously): efficient turnover
- LegB C4,6 dehydration of substrate ([1]; reaction with substrate and LegB only, no exogenous NAD(P)+): failed
- LegG turnover of substrate assessed by CE [3]: moderate efficiency

SMILES: CC(=O)N[C@H]1[C@@H](OP(=O)(O)OP(=O)(O)OC[C@H]2O[C@@H](n3cnc4c(=O)[nH]c(N)nc43)[C@H](O)[C@@H]2O)O[C@H](C)C(=O)[C@@H]1O [VI, GDP-2-acetamido-2,6-dideoxy-α-D-xylo-hexos-4-ulose]
- LegC aminotransfer of substrate [4]: efficient aminotransfer

SMILES: CC(=O)NC1C(OP(=O)(O)OP(=O)(O)OCC2OC(n3cnc4c(=O)[nH]c(N)nc43)C(O)C2O)OC(C)C(N)C1O [VII, GDP-4-amino-4,6-dideoxy-N-acetyl-α-D-glucosamine]
- PglD N-acetyltransfer of substrate [5]: able to catalyze N-acetyltransfer
- LegH conversion of VII to VIII [6]: 100%

— US9157105B2, “Biosynthesis of CMP-legionaminic acid from fructose-6-P, and respective pathway intermediates, using novel GDP-linked precursors” (priority 2008, dated 2015)
